Source: patent publication US11566022B2, “3-(5-methoxy-1-oxoisoindolin-2-yl)piperidine-2,6-dione derivatives and uses thereof” (NOVARTIS AG, priority 2019, dated 2023)

molecular target: HiBit-WIZ fusion protein (Homo sapiens, UniProt O95785+Q96SW2); experiment: Quantification of WIZ protein levels in HiBit tag fusion protein assay (WIZ HiBit assay in 293T cells); format: cell-based; design: Dmax: dose or concentration left out as unconfirmed; conditions: HEK-293T, 100 minus Amax; 293T cells; read-out: % degradation of WIZ (100-Amax)
Sequence (O95785 whole entry, the tested form may be a part): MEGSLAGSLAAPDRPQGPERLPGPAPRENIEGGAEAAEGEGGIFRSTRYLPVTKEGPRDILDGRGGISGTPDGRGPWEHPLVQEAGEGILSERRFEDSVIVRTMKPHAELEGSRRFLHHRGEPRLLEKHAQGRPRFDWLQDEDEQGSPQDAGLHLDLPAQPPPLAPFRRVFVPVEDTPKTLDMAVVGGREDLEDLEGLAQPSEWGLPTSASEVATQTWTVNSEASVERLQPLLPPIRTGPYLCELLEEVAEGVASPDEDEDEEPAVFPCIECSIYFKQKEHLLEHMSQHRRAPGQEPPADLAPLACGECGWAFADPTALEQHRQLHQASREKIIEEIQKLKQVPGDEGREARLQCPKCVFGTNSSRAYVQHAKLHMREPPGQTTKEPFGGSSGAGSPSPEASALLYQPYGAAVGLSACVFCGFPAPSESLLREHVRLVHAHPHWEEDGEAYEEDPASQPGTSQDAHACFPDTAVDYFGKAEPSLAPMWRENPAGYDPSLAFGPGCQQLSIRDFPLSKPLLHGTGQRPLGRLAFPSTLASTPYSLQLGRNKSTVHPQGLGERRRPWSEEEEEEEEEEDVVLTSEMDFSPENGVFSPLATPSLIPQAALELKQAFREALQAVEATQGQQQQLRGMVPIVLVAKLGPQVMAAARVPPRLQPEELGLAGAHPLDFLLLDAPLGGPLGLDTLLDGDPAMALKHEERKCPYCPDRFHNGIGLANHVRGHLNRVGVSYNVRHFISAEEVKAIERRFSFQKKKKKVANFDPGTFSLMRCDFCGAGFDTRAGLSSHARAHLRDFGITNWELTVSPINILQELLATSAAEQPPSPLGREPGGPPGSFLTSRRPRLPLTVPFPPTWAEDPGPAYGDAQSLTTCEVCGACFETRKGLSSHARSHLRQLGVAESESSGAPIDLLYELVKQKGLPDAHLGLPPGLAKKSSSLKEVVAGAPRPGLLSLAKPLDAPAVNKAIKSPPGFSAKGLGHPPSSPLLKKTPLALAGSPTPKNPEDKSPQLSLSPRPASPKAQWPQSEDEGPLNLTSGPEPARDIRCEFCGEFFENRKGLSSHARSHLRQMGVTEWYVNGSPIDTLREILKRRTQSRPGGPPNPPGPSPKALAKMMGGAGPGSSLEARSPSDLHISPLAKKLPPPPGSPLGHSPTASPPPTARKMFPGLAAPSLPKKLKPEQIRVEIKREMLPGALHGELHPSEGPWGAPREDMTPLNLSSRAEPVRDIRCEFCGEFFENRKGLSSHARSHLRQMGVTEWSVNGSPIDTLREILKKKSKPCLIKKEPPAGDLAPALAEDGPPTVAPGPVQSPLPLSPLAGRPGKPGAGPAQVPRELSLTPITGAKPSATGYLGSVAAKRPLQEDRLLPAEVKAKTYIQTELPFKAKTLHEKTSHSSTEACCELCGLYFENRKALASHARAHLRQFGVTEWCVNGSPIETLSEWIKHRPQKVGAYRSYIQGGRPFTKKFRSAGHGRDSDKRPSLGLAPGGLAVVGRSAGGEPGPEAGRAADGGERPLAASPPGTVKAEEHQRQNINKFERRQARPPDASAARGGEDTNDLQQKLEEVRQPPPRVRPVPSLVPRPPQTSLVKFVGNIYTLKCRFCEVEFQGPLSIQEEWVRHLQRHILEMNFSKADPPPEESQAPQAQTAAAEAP
Sequence (Q96SW2 whole entry, the tested form may be a part): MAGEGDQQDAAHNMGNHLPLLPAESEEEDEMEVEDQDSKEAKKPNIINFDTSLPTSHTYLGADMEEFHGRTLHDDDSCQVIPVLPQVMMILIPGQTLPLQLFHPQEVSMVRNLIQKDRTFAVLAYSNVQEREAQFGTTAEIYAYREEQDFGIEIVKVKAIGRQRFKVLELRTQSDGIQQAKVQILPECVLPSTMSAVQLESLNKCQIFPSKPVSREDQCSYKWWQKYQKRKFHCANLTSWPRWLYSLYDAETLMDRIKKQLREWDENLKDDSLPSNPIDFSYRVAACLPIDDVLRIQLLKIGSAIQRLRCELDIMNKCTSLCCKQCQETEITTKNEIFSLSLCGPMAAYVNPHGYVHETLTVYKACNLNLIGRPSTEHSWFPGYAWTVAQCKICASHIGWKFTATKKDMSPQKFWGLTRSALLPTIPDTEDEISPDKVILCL
Sequence (Q16531 whole entry partner, the tested form may be a part): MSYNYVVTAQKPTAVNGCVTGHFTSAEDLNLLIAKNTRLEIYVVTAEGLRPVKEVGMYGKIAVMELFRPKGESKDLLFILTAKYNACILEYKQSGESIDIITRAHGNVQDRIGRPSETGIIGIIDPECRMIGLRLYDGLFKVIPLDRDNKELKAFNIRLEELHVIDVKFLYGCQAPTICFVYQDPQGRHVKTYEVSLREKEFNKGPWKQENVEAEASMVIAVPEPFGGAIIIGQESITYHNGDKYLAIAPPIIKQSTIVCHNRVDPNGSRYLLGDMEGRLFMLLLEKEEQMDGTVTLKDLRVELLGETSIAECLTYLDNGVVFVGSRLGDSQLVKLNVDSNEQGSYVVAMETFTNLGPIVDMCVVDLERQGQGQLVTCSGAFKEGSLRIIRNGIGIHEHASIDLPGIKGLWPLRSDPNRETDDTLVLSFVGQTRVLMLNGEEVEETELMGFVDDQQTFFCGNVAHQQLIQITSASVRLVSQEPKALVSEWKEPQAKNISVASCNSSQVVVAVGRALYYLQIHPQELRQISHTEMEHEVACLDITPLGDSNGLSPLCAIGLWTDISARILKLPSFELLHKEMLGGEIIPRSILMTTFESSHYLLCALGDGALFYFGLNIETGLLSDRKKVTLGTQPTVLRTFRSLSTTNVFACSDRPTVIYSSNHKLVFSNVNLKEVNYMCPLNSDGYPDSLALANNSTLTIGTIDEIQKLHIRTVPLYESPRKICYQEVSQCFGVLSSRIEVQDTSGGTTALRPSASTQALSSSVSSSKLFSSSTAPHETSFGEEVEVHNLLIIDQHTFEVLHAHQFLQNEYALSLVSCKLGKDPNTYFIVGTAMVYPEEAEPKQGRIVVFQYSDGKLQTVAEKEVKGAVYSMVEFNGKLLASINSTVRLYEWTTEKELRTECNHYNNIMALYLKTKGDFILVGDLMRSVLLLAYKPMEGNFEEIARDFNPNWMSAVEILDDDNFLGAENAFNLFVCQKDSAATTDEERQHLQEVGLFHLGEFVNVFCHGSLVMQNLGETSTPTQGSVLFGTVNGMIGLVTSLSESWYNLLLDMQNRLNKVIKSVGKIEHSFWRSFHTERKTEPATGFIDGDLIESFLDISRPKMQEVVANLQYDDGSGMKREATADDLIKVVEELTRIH

Row | SMILES | Dmax [%]
1 | Cc1nnc(-c2ccc(CN3CCCC[C@@H]3COc3ccc4c(c3)CN(C3CCC(=O)NC3=O)C4=O)cc2)o1 (stereo partly drawn) [Compound I-50dv] | 65
2 | CC(C)Cn1cc(CN2CCCC[C@@H]2COc2ccc3c(c2)CN(C2CCC(=O)NC2=O)C3=O)cn1 (stereo partly drawn) [Compound I-50dw] | 99
3 | O=C1CCC(N2Cc3cc(OC[C@H]4CCCCN4Cc4ccc(N5CCOCC5)cc4)ccc3C2=O)C(=O)N1 (stereo partly drawn) [Compound I-50dx] | 98
4 | Cn1ccc2c(CN3CCCC[C@@H]3COc3ccc4c(c3)CN(C3CCC(=O)NC3=O)C4=O)cccc21 (stereo partly drawn) [Compound I-50dy] | 96.6
5 | N#Cc1ccccc1CN1CCCC[C@@H]1COc1ccc2c(c1)CN(C1CCC(=O)NC1=O)C2=O (stereo partly drawn) [Compound I-50dz] | 62.8
6 | O=C1CCC(N2Cc3cc(OC[C@@H]4CCCCN4Cc4cocn4)ccc3C2=O)C(=O)N1 (stereo partly drawn) [Compound I-50e] | 41.1
7 | CC(C)N1CCC(CN2CCCC[C@@H]2COc2ccc3c(c2)CN(C2CCC(=O)NC2=O)C3=O)CC1 (stereo partly drawn) [Compound I-50ea] | 81
8 | CCN(CC)c1ccc(CN2CCCC[C@@H]2COc2ccc3c(c2)CN(C2CCC(=O)NC2=O)C3=O)cn1 (stereo partly drawn) [Compound I-50eb] | 98.5
9 | O=C1CCC(N2Cc3cc(OC[C@H]4CCCCN4Cc4cnn(C5CCCCC5)c4)ccc3C2=O)C(=O)N1 (stereo partly drawn) [Compound I-50ec] | 100
10 | O=C1CCC(N2Cc3cc(OC[C@H]4CCCCN4Cc4ccccc4OCCN4CCOCC4)ccc3C2=O)C(=O)N1 (stereo partly drawn) [Compound I-50ed] | 92.3
11 | O=C1CCC(N2Cc3cc(OC[C@H]4CCCCN4Cc4ccc(-n5nccn5)cc4)ccc3C2=O)C(=O)N1 (stereo partly drawn) [Compound I-50eg] | 99.6
12 | O=C1CCC(N2Cc3cc(OC[C@H]4CCCCN4Cc4cccc(Cn5ccnc5)c4)ccc3C2=O)C(=O)N1 (stereo partly drawn) [Compound I-50eh] | 97.2
13 | O=C1CCC(N2Cc3cc(OC[C@H]4CCCCN4Cc4cc(-n5nnnc5C(F)(F)F)ccc4O)ccc3C2=O)C(=O)N1 (stereo partly drawn) [Compound I-50ei] | 31.4
14 | O=C1CCC(N2Cc3cc(OC[C@H]4CCCCN4Cc4ncccc4O)ccc3C2=O)C(=O)N1 (stereo partly drawn) [Compound I-50ej] | 17.2
15 | O=C1CCC(N2Cc3cc(OC[C@H]4CCCCN4Cc4ccc(Cn5ccnc5)cc4)ccc3C2=O)C(=O)N1 (stereo partly drawn) [Compound I-50ek] | 99.1
16 | Cc1noc(C)c1CN1CCCC[C@@H]1COc1ccc2c(c1)CN(C1CCC(=O)NC1=O)C2=O (stereo partly drawn) [Compound I-50el] | 30.3
17 | O=C1CCC(N2Cc3cc(OC[C@H]4CCCCN4Cc4cccc(Cn5cccn5)c4)ccc3C2=O)C(=O)N1 (stereo partly drawn) [Compound I-50en] | 99.8
18 | CCn1cc(CN2CCCC[C@@H]2COc2ccc3c(c2)CN(C2CCC(=O)NC2=O)C3=O)cn1 (stereo partly drawn) [Compound I-50eo] | 94
19 | Cc1nnsc1CN1CCCC[C@@H]1COc1ccc2c(c1)CN(C1CCC(=O)NC1=O)C2=O (stereo partly drawn) [Compound I-50ep] | 12.4
20 | Cc1cc(CN2CCCC[C@@H]2COc2ccc3c(c2)CN(C2CCC(=O)NC2=O)C3=O)no1 (stereo partly drawn) [Compound I-50eq] | 88.4
21 | CCOC(=O)c1cccc2[nH]nc(CN3CCCC[C@@H]3COc3ccc4c(c3)CN(C3CCC(=O)NC3=O)C4=O)c12 (stereo partly drawn) [Compound I-50er] | 89.8
22 | O=C1CCC(N2Cc3cc(OC[C@H]4CCCCN4Cc4ccc(N5CCCC5)nc4)ccc3C2=O)C(=O)N1 (stereo partly drawn) [Compound I-50es] | 99.5
23 | O=C1CCC(N2Cc3cc(OC[C@H]4CCCCN4Cc4ncc[nH]4)ccc3C2=O)C(=O)N1 (stereo partly drawn) [Compound I-50et] | 49.1

same assay, conditions: HEK-293T, DMSO-normalized, curve-fitted percentage of WIZ-HiBit remaining at 25 uM; 293T cells; read-out: WIZ Amax

Row | SMILES | remaining activity at up to 25 µM [%]
24 | Cc1nnc(-c2ccc(CN3CCCC[C@@H]3COc3ccc4c(c3)CN(C3CCC(=O)NC3=O)C4=O)cc2)o1 (stereo partly drawn) [Compound I-50dv] | 35
25 | CC(C)Cn1cc(CN2CCCC[C@@H]2COc2ccc3c(c2)CN(C2CCC(=O)NC2=O)C3=O)cn1 (stereo partly drawn) [Compound I-50dw] | 1
26 | O=C1CCC(N2Cc3cc(OC[C@H]4CCCCN4Cc4ccc(N5CCOCC5)cc4)ccc3C2=O)C(=O)N1 (stereo partly drawn) [Compound I-50dx] | 2
27 | Cn1ccc2c(CN3CCCC[C@@H]3COc3ccc4c(c3)CN(C3CCC(=O)NC3=O)C4=O)cccc21 (stereo partly drawn) [Compound I-50dy] | 3.4
28 | N#Cc1ccccc1CN1CCCC[C@@H]1COc1ccc2c(c1)CN(C1CCC(=O)NC1=O)C2=O (stereo partly drawn) [Compound I-50dz] | 37.2
29 | O=C1CCC(N2Cc3cc(OC[C@@H]4CCCCN4Cc4cocn4)ccc3C2=O)C(=O)N1 (stereo partly drawn) [Compound I-50e] | 58.9
30 | CC(C)N1CCC(CN2CCCC[C@@H]2COc2ccc3c(c2)CN(C2CCC(=O)NC2=O)C3=O)CC1 (stereo partly drawn) [Compound I-50ea] | 19
31 | CCN(CC)c1ccc(CN2CCCC[C@@H]2COc2ccc3c(c2)CN(C2CCC(=O)NC2=O)C3=O)cn1 (stereo partly drawn) [Compound I-50eb] | 1.5
32 | O=C1CCC(N2Cc3cc(OC[C@H]4CCCCN4Cc4cnn(C5CCCCC5)c4)ccc3C2=O)C(=O)N1 (stereo partly drawn) [Compound I-50ec] | 0
33 | O=C1CCC(N2Cc3cc(OC[C@H]4CCCCN4Cc4ccccc4OCCN4CCOCC4)ccc3C2=O)C(=O)N1 (stereo partly drawn) [Compound I-50ed] | 7.7
34 | O=C1CCC(N2Cc3cc(OC[C@H]4CCCCN4Cc4ccc(-n5nccn5)cc4)ccc3C2=O)C(=O)N1 (stereo partly drawn) [Compound I-50eg] | 0.4
35 | O=C1CCC(N2Cc3cc(OC[C@H]4CCCCN4Cc4cccc(Cn5ccnc5)c4)ccc3C2=O)C(=O)N1 (stereo partly drawn) [Compound I-50eh] | 2.8
36 | O=C1CCC(N2Cc3cc(OC[C@H]4CCCCN4Cc4cc(-n5nnnc5C(F)(F)F)ccc4O)ccc3C2=O)C(=O)N1 (stereo partly drawn) [Compound I-50ei] | 68.6
37 | O=C1CCC(N2Cc3cc(OC[C@H]4CCCCN4Cc4ncccc4O)ccc3C2=O)C(=O)N1 (stereo partly drawn) [Compound I-50ej] | 82.8
38 | O=C1CCC(N2Cc3cc(OC[C@H]4CCCCN4Cc4ccc(Cn5ccnc5)cc4)ccc3C2=O)C(=O)N1 (stereo partly drawn) [Compound I-50ek] | 0.9
39 | Cc1noc(C)c1CN1CCCC[C@@H]1COc1ccc2c(c1)CN(C1CCC(=O)NC1=O)C2=O (stereo partly drawn) [Compound I-50el] | 69.7
40 | O=C1CCC(N2Cc3cc(OC[C@H]4CCCCN4Cc4cccc(Cn5cccn5)c4)ccc3C2=O)C(=O)N1 (stereo partly drawn) [Compound I-50en] | 0.2
41 | CCn1cc(CN2CCCC[C@@H]2COc2ccc3c(c2)CN(C2CCC(=O)NC2=O)C3=O)cn1 (stereo partly drawn) [Compound I-50eo] | 6
42 | Cc1nnsc1CN1CCCC[C@@H]1COc1ccc2c(c1)CN(C1CCC(=O)NC1=O)C2=O (stereo partly drawn) [Compound I-50ep] | 87.6
43 | Cc1cc(CN2CCCC[C@@H]2COc2ccc3c(c2)CN(C2CCC(=O)NC2=O)C3=O)no1 (stereo partly drawn) [Compound I-50eq] | 11.6
44 | CCOC(=O)c1cccc2[nH]nc(CN3CCCC[C@@H]3COc3ccc4c(c3)CN(C3CCC(=O)NC3=O)C4=O)c12 (stereo partly drawn) [Compound I-50er] | 10.2
45 | O=C1CCC(N2Cc3cc(OC[C@H]4CCCCN4Cc4ccc(N5CCCC5)nc4)ccc3C2=O)C(=O)N1 (stereo partly drawn) [Compound I-50es] | 0.5
46 | O=C1CCC(N2Cc3cc(OC[C@H]4CCCCN4Cc4ncc[nH]4)ccc3C2=O)C(=O)N1 (stereo partly drawn) [Compound I-50et] | 50.9

same assay, conditions: WIZ HiBit assay in 293T cells; 10-point, 5-fold dose response, highest concentration 25 μM, about 18 hours; read-out: WIZ AC50

Row | SMILES | DC50 [nM]
47 | Cc1nnc(-c2ccc(CN3CCCC[C@@H]3COc3ccc4c(c3)CN(C3CCC(=O)NC3=O)C4=O)cc2)o1 (stereo partly drawn) [Compound I-50dv] | 2990
48 | CC(C)Cn1cc(CN2CCCC[C@@H]2COc2ccc3c(c2)CN(C2CCC(=O)NC2=O)C3=O)cn1 (stereo partly drawn) [Compound I-50dw] | 8
49 | O=C1CCC(N2Cc3cc(OC[C@H]4CCCCN4Cc4ccc(N5CCOCC5)cc4)ccc3C2=O)C(=O)N1 (stereo partly drawn) [Compound I-50dx] | 2
50 | Cn1ccc2c(CN3CCCC[C@@H]3COc3ccc4c(c3)CN(C3CCC(=O)NC3=O)C4=O)cccc21 (stereo partly drawn) [Compound I-50dy] | 19
51 | N#Cc1ccccc1CN1CCCC[C@@H]1COc1ccc2c(c1)CN(C1CCC(=O)NC1=O)C2=O (stereo partly drawn) [Compound I-50dz] | 3270
52 | O=C1CCC(N2Cc3cc(OC[C@@H]4CCCCN4Cc4cocn4)ccc3C2=O)C(=O)N1 (stereo partly drawn) [Compound I-50e] | > 25000
53 | CC(C)N1CCC(CN2CCCC[C@@H]2COc2ccc3c(c2)CN(C2CCC(=O)NC2=O)C3=O)CC1 (stereo partly drawn) [Compound I-50ea] | 651
54 | CCN(CC)c1ccc(CN2CCCC[C@@H]2COc2ccc3c(c2)CN(C2CCC(=O)NC2=O)C3=O)cn1 (stereo partly drawn) [Compound I-50eb] | 2
55 | O=C1CCC(N2Cc3cc(OC[C@H]4CCCCN4Cc4cnn(C5CCCCC5)c4)ccc3C2=O)C(=O)N1 (stereo partly drawn) [Compound I-50ec] | 17
56 | O=C1CCC(N2Cc3cc(OC[C@H]4CCCCN4Cc4ccccc4OCCN4CCOCC4)ccc3C2=O)C(=O)N1 (stereo partly drawn) [Compound I-50ed] | 100
57 | O=C1CCC(N2Cc3cc(OC[C@H]4CCCCN4Cc4ccc(-n5nccn5)cc4)ccc3C2=O)C(=O)N1 (stereo partly drawn) [Compound I-50eg] | 4
58 | O=C1CCC(N2Cc3cc(OC[C@H]4CCCCN4Cc4cccc(Cn5ccnc5)c4)ccc3C2=O)C(=O)N1 (stereo partly drawn) [Compound I-50eh] | 13
59 | O=C1CCC(N2Cc3cc(OC[C@H]4CCCCN4Cc4cc(-n5nnnc5C(F)(F)F)ccc4O)ccc3C2=O)C(=O)N1 (stereo partly drawn) [Compound I-50ei] | > 25000
60 | O=C1CCC(N2Cc3cc(OC[C@H]4CCCCN4Cc4ncccc4O)ccc3C2=O)C(=O)N1 (stereo partly drawn) [Compound I-50ej] | > 25000
61 | O=C1CCC(N2Cc3cc(OC[C@H]4CCCCN4Cc4ccc(Cn5ccnc5)cc4)ccc3C2=O)C(=O)N1 (stereo partly drawn) [Compound I-50ek] | 4
62 | Cc1noc(C)c1CN1CCCC[C@@H]1COc1ccc2c(c1)CN(C1CCC(=O)NC1=O)C2=O (stereo partly drawn) [Compound I-50el] | > 25000
63 | O=C1CCC(N2Cc3cc(OC[C@H]4CCCCN4Cc4cccc(Cn5cccn5)c4)ccc3C2=O)C(=O)N1 (stereo partly drawn) [Compound I-50en] | 4
64 | CCn1cc(CN2CCCC[C@@H]2COc2ccc3c(c2)CN(C2CCC(=O)NC2=O)C3=O)cn1 (stereo partly drawn) [Compound I-50eo] | 74
65 | Cc1nnsc1CN1CCCC[C@@H]1COc1ccc2c(c1)CN(C1CCC(=O)NC1=O)C2=O (stereo partly drawn) [Compound I-50ep] | > 25000
66 | Cc1cc(CN2CCCC[C@@H]2COc2ccc3c(c2)CN(C2CCC(=O)NC2=O)C3=O)no1 (stereo partly drawn) [Compound I-50eq] | 272
67 | CCOC(=O)c1cccc2[nH]nc(CN3CCCC[C@@H]3COc3ccc4c(c3)CN(C3CCC(=O)NC3=O)C4=O)c12 (stereo partly drawn) [Compound I-50er] | 920
68 | O=C1CCC(N2Cc3cc(OC[C@H]4CCCCN4Cc4ccc(N5CCCC5)nc4)ccc3C2=O)C(=O)N1 (stereo partly drawn) [Compound I-50es] | 3
69 | O=C1CCC(N2Cc3cc(OC[C@H]4CCCCN4Cc4ncc[nH]4)ccc3C2=O)C(=O)N1 (stereo partly drawn) [Compound I-50et] | > 25000
